pIC50: −log10 of the molar value. Where two headings read alike, the source gives them in different places.

The values that follow come from US6979686B1, “Substituted pyrazoles as p38 kinase inhibitors” (Pharmacia Corporation, priority 2001, dated 2005).

Test [1] has as its system TNF-α, U937 human histiocytic lymphoma cell line. Kind of test: LPS stimulation of TNF production by U937 cells. In kind it is cell-based. The conditions noted are these: for U937 Cell % inhib @ conc. (uM) / U937 Cell % inhib @ conc.: @ 1.0 uM; for inhibition at 10 µM: U-937, @ 10.0 uM; for inhibition at 10 µM / inhibition at 1 µM: read-out: U937 Cell % inhib @ conc.; for inhibition at 1 µM: U-937, @ 1.0 uM. The procedure: Maintenance and Differentiation of the U937 Human Histiocytic Lymphoma Cell Line:
Fifty million cells in 100 ml media were induced to terminal monocytic differentiation by 24 hour incubation with 20 ng/ml phorbol 12-myristate 13-acetate (Sigma). The cells were washed by centrifugation (200×g for 5 min) and resuspended in 100 ml fresh medium. After 24-48 hours, the cells were harvested, centrifuged, and resuspended in culture medium at 2 million cells/ml.
LPS Stimulation of TNF Production by U937 Cells:
Compounds were prepared as 10 mM stock solutions in DMSO and diluted in culture medium to yield a final DMSO concentration of 0.1% in the cell assay. LPS (E coli, 100 ng/ml final concentration) was then added at a volume of 0.02 ml. After 4 hour incubation at 37° C., the amount of TNF-α released in the culture medium was quantitated by ELISA. Inhibitory potency is expressed as IC50 (μM).
In vitro whole cell assay for measuring the ability of the compounds to inhibit TNF production in human U937 cells stimulated with LPS are shown in the column identified as: • “U937 Cell IC50, uM or % inhib @ conc., (uM)”

Another test has as its target T1, human p38 kinase alpha (Homo sapiens, UniProt Q16539).
T1 construct: GST (N, cleaved yes); made in house; host or cells: E. coli DH10B
Kind of test: p38 kinase in vitro assay, phosphorylation of biotinylated PHAS-I with 32P-ATP. The test is classed as biochemical. The conditions noted are these: for P38 alpha kinase IC50, uM or % inhib @ conc. (uM): % inhib: @ 10.0 uM; for inhibition at 1 µM: read-out: P38 alpha kinase % inhib @ conc.

The mark [2] stands for this setting: TNF production, U937 cells stimulated with LPS.
[3] abbreviates: Table 5, LPS-stimulated U937 cells, TNF-α, read-out: U937 Cell Assay IC50.
[4] abbreviates: activated human p38 kinase alpha, PHAS-I substrate, 50 μM unlabeled ATP, read-out: p38 kinase IC50.
Setting [5] is: Homo sapiens, TNF production, U937 cells stimulated with LPS.
Setting [6] is: Homo sapiens, U-937, TNF production, human U937 cells stimulated with LPS, read-out: U937 Cell IC50.
[7] abbreviates: TNF production in human U937 cells stimulated with LPS.
The mark [8] stands for this setting: read-out: P38 alpha kinase IC50.

T1 sequence (Q16539 whole entry): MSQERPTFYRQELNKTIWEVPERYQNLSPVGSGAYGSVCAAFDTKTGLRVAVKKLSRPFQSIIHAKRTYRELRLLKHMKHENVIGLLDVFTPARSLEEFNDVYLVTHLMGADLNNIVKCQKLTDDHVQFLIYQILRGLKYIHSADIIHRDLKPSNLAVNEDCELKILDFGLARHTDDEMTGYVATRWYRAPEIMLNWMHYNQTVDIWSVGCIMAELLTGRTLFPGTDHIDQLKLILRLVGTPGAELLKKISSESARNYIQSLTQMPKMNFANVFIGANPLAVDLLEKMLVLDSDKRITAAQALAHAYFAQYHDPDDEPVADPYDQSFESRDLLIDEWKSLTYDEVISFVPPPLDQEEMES

Take `Cc1c(-c2ccncc2)c(-c2ccc(F)cc2)nn1CC(=O)N1CCCCC1CC1CCCN1C` (mixture of isomers) [Example B-2388]: in test [1] (@ 10.0 uM, TNF production, U937 cells stimulated with LPS), the “U937 Cell IC50, uM or % inhib @ conc. (uM): % inhib” value is on record as 24.0% @. At human p38 kinase alpha, the “P38 alpha kinase IC50, uM or % inhib @ conc. (uM): % inhib” value (from here on “P38 alpha kinase IC50 … % inhib”) is 42.0% @. In the case of `O=C(NCCc1[nH]nc(-c2ccc(F)cc2)c1-c1ccncc1)NC1CC1c1ccccc1` (racemic) [Example B-0941], in test [1] (setting [2]), the “U937 Cell % inhib @ conc. (uM)” value worked out at 25.0% @. In addition, the “P38 alpha kinase % inhib @ conc. (uM)” value at human p38 kinase alpha (@ 1.0 uM) is on record as 81.0% @.

Take `O=C(NCc1[nH]nc(-c2ccc(F)cc2)c1-c1ccncc1)[C@@H]1CCCN1` [B0194]: the “U937 Cell % inhib @ conc.” value in test [1] (setting [2]) amounted to 22% @. Further, on human p38 kinase alpha (in vitro P38-alpha kinase, read-out: P38 alpha kinase IC50), the pIC50 is 5.88. Take `Cc1ccc(-c2n[nH]c(C)c2-c2ccncc2)c(C)c1` [Example A-31]: the pIC50 in test [1] (setting [3]) was 5.98. Turning to `Cc1[nH]nc(-c2ccc(N(C)C)cc2)c1-c1ccncc1` [Example A-37], the negative logarithm of the IC50 (pIC50) in test [1] (setting [3]) is 7.00. Turning to `Cc1n[nH]c(-c2ccc(Br)cc2)c1-c1ccncc1` [Example A-39], the pIC50 in test [1] (setting [3]) is 6.61; on human p38 kinase alpha (setting [4]) it was 5.96. As for `COc1cccc(-c2n[nH]c(C)c2-c2ccncc2)c1` [Example A-44], the pIC50 is 6.32 in test [1] (setting [3]) and above 7.00 at human p38 kinase alpha (setting [4]). As to `Cc1[nH]nc(-c2ccc(F)c(F)c2)c1-c1ccncc1` [Example A-46], the negative-log IC50 (pIC50) in test [1] (setting [3]) was 6.48; on human p38 kinase alpha (setting [4]), above 7.00. Turning to `CCOc1ccc(-c2n[nH]c(C)c2-c2ccncc2)cc1` [Example A-47], the results for the negative logarithm of the IC50 (pIC50) (in test [1] (setting [3]); on human p38 kinase alpha (setting [4])) were 5.63 and 5.49, respectively. Regarding `Cc1[nH]nc(-c2ccc(C(F)(F)F)cc2)c1-c1ccncc1` [Example A-48], the pIC50 in test [1] (setting [3]) is 6.28; at human p38 kinase alpha (setting [4]) it was 5.74. For `Cc1[nH]nc(-c2cccc(Cl)c2)c1-c1ccncc1` [Example A-51], the pIC50 in test [1] (setting [3]) was 7.13; on human p38 kinase alpha (setting [4]), above 7.00. As for `O=C(NCc1[nH]nc(-c2ccc(F)cc2)c1-c1ccncc1)[C@@H]1C[C@@H]1c1ccccc1` [Example B-0002], the inhibition at 10 µM in test [1] (setting [5]) stood at 28%. In addition, the inhibition at 1 µM at human p38 kinase alpha (@ 1.0 uM) is 71%. As for `O=C(NCc1[nH]nc(-c2ccc(F)cc2)c1-c1ccncc1)c1ccccc1I` [Example B-0005], the pIC50 in test [1] (setting [6]) is 5.53. For the same compound, the inhibition at 1 µM at human p38 kinase alpha (@ 1.0 uM) is 95%.

As for `O=C(NCc1[nH]nc(-c2ccc(F)cc2)c1-c1ccncc1)c1ccccc1C(F)(F)F` [Example B-0016], the negative logarithm of the IC50 (pIC50) in test [1] (setting [6]) is 5.40. The inhibition at 1 µM on human p38 kinase alpha (@ 1.0 uM) was determined as 94%. With `O=C(NCc1[nH]nc(-c2ccc(F)cc2)c1-c1ccncc1)c1c(Cl)cc(Cl)cc1Cl` [Example B-0019], the inhibition at 10 µM in test [1] (setting [5]) came to 100%. Moreover, the inhibition at 1 µM on human p38 kinase alpha (@ 1.0 uM) worked out at 84%. For the compound `O=C(NCc1[nH]nc(-c2ccc(F)cc2)c1-c1ccncc1)c1ccc(F)c(F)c1F` [Example B-0026], the pIC50 in test [1] (setting [6]) was 5.49. At human p38 kinase alpha (@ 1.0 uM), the inhibition at 1 µM was 96%. Take `CC(C)=CC(=O)NCc1[nH]nc(-c2ccc(F)cc2)c1-c1ccncc1` [Example B-0027]: the pIC50 in test [1] (setting [6]) was 4.96. Besides, the inhibition at 1 µM at human p38 kinase alpha (@ 1.0 uM) came out at 94%.

With `O=C(NCc1[nH]nc(-c2ccc(F)cc2)c1-c1ccncc1)c1ccc([N+](=O)[O-])o1` [Example B-0031], the inhibition at 10 µM in test [1] (setting [5]) came out at 100%. Also, the inhibition at 1 µM on human p38 kinase alpha (@ 1.0 uM) turned out to be 94%. Turning to `COc1ccc(CC(=O)NCc2[nH]nc(-c3ccc(F)cc3)c2-c2ccncc2)cc1OC` [Example B-0034], in test [1] (setting [6]), the negative-log IC50 (pIC50) was 5.00. In addition, the inhibition at 1 µM at human p38 kinase alpha (@ 1.0 uM) was determined as 95%. In the case of `COc1ccc(CC(=O)NCc2[nH]nc(-c3ccc(F)cc3)c2-c2ccncc2)cc1` [Example B-0036], the negative-log IC50 (pIC50) in test [1] (setting [6]) was 5.08. For the same compound, at human p38 kinase alpha (@ 1.0 uM), the inhibition at 1 µM worked out at 92%. Consider `O=C(NCc1[nH]nc(-c2ccc(F)cc2)c1-c1ccncc1)c1ccc(F)cc1C(F)(F)F` [Example B-0062], for which the “U937 Cell % inhib @ conc.” value in test [1] (setting [2]) is recorded as 36.0% @.

Turning to `Cc1cccc(C(=O)NCc2[nH]nc(-c3ccc(F)cc3)c2-c2ccncc2)c1` [Example B-0067], the “U937 Cell % inhib @ conc.” value in test [1] (setting [2]) is 1.0% @. For `CC1(C)C2CCC1(CS(=O)(=O)NCc1[nH]nc(-c3ccc(F)cc3)c1-c1ccncc1)C(=O)C2` (centres unmarked) [Example B-0226], the inhibition at 1 µM in test [1] (setting [5]) turned out to be 20%.

On to `CC1(C)C2CCC1(CS(=O)(=O)NCc1[nH]nc(-c3ccc(F)cc3)c1-c1ccncc1)C(=O)C2` (centres unmarked) [Example B-0227], for which the “U937 Cell % inhib @ conc.” value in test [1] (setting [2]) is 1.0% @.

For `Cc1cccc(C(=O)NCc2[nH]nc(-c3ccc(F)cc3)c2-c2ccncc2)c1` [Example B-0290], in test [1] (setting [5]), the inhibition at 1 µM was 44%.

As to `O=C(NCc1[nH]nc(-c2ccc(F)cc2)c1-c1ccncc1)c1cccs1` [Example B-0303], in test [1] (setting [2]), the “U937 Cell % inhib @ conc.” value is 10.0% @. Take `COc1ccc(CC(=O)N[C@H](C)c2[nH]nc(-c3ccc(F)cc3)c2-c2ccncc2)cc1OC` [Example B-0371]: the inhibition at 1 µM in test [1] (setting [5]) worked out at 28%. For the compound `C[C@@H](NC(=O)N[C@H](C)c1[nH]nc(-c2ccc(F)cc2)c1-c1ccncc1)c1ccccc1` [Example B-0417], the “U937 Cell % inhib @ conc. (uM)” value in test [1] (setting [7]) worked out at 28.0% @. In the case of `C[C@@H](NS(=O)(=O)c1ccc2ccccc2c1)c1[nH]nc(-c2ccc(F)cc2)c1-c1ccncc1` [Example B-0475], the “U937 Cell % inhib @ conc. (uM)” value in test [1] (setting [7]) worked out at 74.0% @.

Turning to `CC(NC(=O)c1ccc(Cl)cc1Cl)c1[nH]nc(-c2ccc(F)cc2)c1-c1ccncc1` (centres unmarked) [Example B-0693], the “U937 Cell % inhib @ conc. (uM)” value in test [1] (setting [7]) is recorded as 28.0% @. In the case of `O=C(NC(Cc1ccccc1)c1[nH]nc(-c2ccc(F)cc2)c1-c1ccncc1)c1ccncc1` (centres unmarked) [Example B-0854], in test [1] (setting [2]), the “U937 Cell % inhib @ conc. (uM)” value was 25.0% @. Consider `O=C(NC(Cc1ccccc1)c1[nH]nc(-c2ccc(F)cc2)c1-c1ccncc1)c1ccccn1` (centres unmarked) [Example B-0855], for which the “U937 Cell % inhib @ conc. (uM)” value in test [1] (setting [2]) came to 8.0% @. The same measure, in the same setting: the result for `Cc1ccc(S(=O)(=O)NC(Cc2ccccc2)C(=O)NCCCc2[nH]nc(-c3ccc(F)cc3)c2-c2ccncc2)cc1` (centres unmarked) [Example B-1188] reads 36.0% @. For `O=C(NCCCc1[nH]nc(-c2ccc(F)cc2)c1-c1ccncc1)NCc1ccccn1` [Example B-1304], the inhibition at 1 µM in test [1] (Homo sapiens, TNF production, LPS-stimulated U937 cells) came out at 10%. Regarding `O=C(NCCCc1[nH]nc(-c2ccc(F)cc2)c1-c1ccncc1)NCCc1c[nH]cn1` [Example B-1306], in test [1] (setting [6]), the pIC50 is below 6.00.

Consider `Cc1c(-c2ccncc2)c(-c2ccc(F)cc2)nn1CC(=O)Nc1cccc(SC(F)(F)F)c1` [Example B-2459], for which, at human p38 kinase alpha, the “P38 alpha kinase IC50 … % inhib” value was 82.0% @. For the compound `Cc1c(-c2ccncc2)c(-c2ccc(F)cc2)nn1CC(=O)Nc1ccccc1SCCCc1ccccc1` [Example B-2460], the “P38 alpha kinase IC50 … % inhib” value at human p38 kinase alpha amounted to 80.0% @. On the same count and under the same terms, under `Cc1c(-c2ccncc2)c(-c2ccc(F)cc2)nn1CC(=O)Nc1ccc(CSc2ccc(Cl)cc2)cc1` [Example B-2461] stands 67.0% @. Turning to `COCC(=O)N[C@H]1CC[C@@H](C2=NN=C(c3ccc(Cl)cc3)C2c2ccncc2)CC1` (stereo partly drawn) [Example C-96, 5-cis-[4-N-(METHOXYACETYL)AMINOCYCLOHEXYL]-4-(4-PYRIDYL)-3-(4-CHLOROPHENYL)PYRAZOLE], the negative-log IC50 (pIC50) on human p38 kinase alpha (setting [8]) is 7.11.

Take `N[C@H]1CC[C@@H](c2[nH]nc(-c3ccc(C(F)(F)F)cc3)c2-c2ccncc2)CC1` [Example C-101, 5-cis-(4-AMINOCYCLOHEXYL)-4-(4-PYRIDYL)-3-[4-(TRIFLUOROMETHYL)PHENYL]PYRAZOLE]: the pIC50 at human p38 kinase alpha (setting [8]) was 7.08. Still for that read-out and setting: under `CN(C)[C@H]1CC[C@@H](c2[nH]nc(-c3ccc(C(F)(F)F)cc3)c2-c2ccncc2)CC1` [Example C-102, 5-cis-(4-N,N-DIMETHYLAMINOCYCLOHEXYL)-4-(4-PYRIDYL)-3-[4-(TRIFLUOROMETHYL)PHENYL]PYRAZOLE] stands 6.54.
